Measured values reported in PMC5107132 (European journal of pharmacology, 2016).

System: Wistar rats
Test: Spontaneous locomotor activity
Type: in vivo, rat
Settings: 15 mg/kg i.p., 45 min

C#Cc1ccc2c(c1)C(c1ccccc1F)=N[C@H](C)c1c(C(=O)NC)ncn1-2 [MP-III-022, (R)-8-Ethynyl-6-(2-fluorophenyl)-N,4-dimethyl-4H-benzo[f]imidazo[1,5-a][1,4]diazepine-3-carboxamide]
Spontaneous locomotor activity, total distance traveled: slight hyperlocomotion
